This note sets out measurements from patent publication US9073940B2, “Tricyclic pyrazol amine derivatives” (MERCK SERONO SA, priority 2009, dated 2015).

The structures appear in SMILES notation. Structures can show the parent of a compound that is named as a salt.

In the first experiment the test system is 4 PI3K isoforms (Human recombinant GST-PI3K). Description: PI3K scintillation proximity assay, best IC50 obtained with the four isoforms (alpha, beta, delta, gamma). The class given is biochemical. Conditions: best IC50 obtained with the four isoforms of PI3K; read-out: Best potency measured on the 4 PI3K isoforms.
Regarding `COc1cccc(Cn2nc(C(=O)N3CCOCC3)c3c2-c2ccccc2S(=O)(=O)C3)c1` [Example 232, 1-(3-Methoxybenzyl)-3-(morpholin-4-ylcarbonyl)-1,4-dihydrothiochromeno[4,3-c]pyrazole 5,5-dioxide], the IC50 came out at 1170 nM.
Take `O=C(c1nn([C@H]2CCCN(CCN3CCC(O)CC3)C2)c2c1CS(=O)(=O)c1ccccc1-2)N1CCOCC1` (stereo in doubt) [Example 463, 1-(2-{3-[3-(morpholin-4-ylcarbonyl)-5,5-dioxidothiochromeno[4,3-c]pyrazol-1(4H)-yl]piperidin-1-yl}ethyl)piperidin-4-ol]: the IC50 was determined as 18 nM.
Take `O=C(c1nn([C@H]2CCCN(CCn3ccnc3)C2)c2c1CS(=O)(=O)c1ccccc1-2)N1CCOCC1` (single isomer, unassigned) [Example 412, 1-{1-[2-(1H-imidazol-1-yl)ethyl]piperidin-3-yl}-3-(morpholin-4-ylcarbonyl)-1,4-dihydrothiochromeno[4,3-c]pyrazole 5,5-dioxide]: the IC50 worked out at 5600 nM.
Take `O=C(c1n[nH]c2c1CS(=O)(=O)c1ccccc1-2)N1CCOCC1` [Example 3, 3-(morpholin-4-ylcarbonyl)-2,4-dihydrothiochromeno[4,3-c]pyrazole 5,5-dioxide]: the IC50 came out at 2880 nM.
Consider `O=C(c1nn(C2CCCNC2)c2c1CS(=O)(=O)c1cc(OC(F)(F)F)ccc1-2)N1CCOCC1` (stereo not shown) [Example 481, 7-(Trifluoromethoxy)-3-(morpholin-4-ylcarbonyl)-1-piperidin-3-yl-1,4-dihydrothiochromeno[4,3-c]pyrazole 5,5-dioxide], for which the IC50 was 10500 nM.
In the case of `O=C(c1nn(C2CCN(CCN3CCOCC3)CC2)c2c1CS(=O)(=O)c1ccccc1-2)N1CCOCC1` [Example 290, 3-(Morpholin-4-ylcarbonyl)-1-[1-(2-morpholin-4-ylethyl)piperidin-4-yl]-1,4-dihydrothiochromeno[4,3-c]pyrazole 5,5-dioxide], the IC50 came out at 369 nM.
Regarding `O=C(c1nn([C@@H]2CCN(C3CCOCC3)C2)c2c1CS(=O)(=O)c1c(F)cccc1-2)N1CCOCC1` (single isomer, unassigned) [Example 353, 6-fluoro-3-(morpholin-4-ylcarbonyl)-1-[1-(tetrahydro-2H-pyran-4-yl)pyrrolidin-3-yl]-1,4-dihydrothiochromeno[4,3-c]pyrazole 5,5-dioxide hydrochloride salt], the IC50 amounted to 2040 nM.
The same measure, in the same setting: the same measure for `O=C(c1nn(C2CCN(C3CCOCC3)C2)c2c1CS(=O)(=O)c1ccccc1-2)N1CCOCC1` (stereo not shown) [Example 300, 3-(Morpholin-4-ylcarbonyl)-1-[1-(tetrahydro-2H-pyran-4-yl)pyrrolidin-3-yl]-1,4-dihydrothiochromeno[4,3-c]pyrazole 5,5-dioxide]: 77 nM; for `Cc1noc(-c2cccc(-n3nc(C(=O)N4CCOCC4)c4c3-c3ccccc3S(=O)(=O)C4)c2)n1` [Example 196, 1-[3-(3-Methyl-1,2,4-oxadiazol-5-yl)phenyl]-3-(morpholin-4-ylcarbonyl)-1,4-dihydrothiochromeno[4,3-c]pyrazole 5,5-dioxide]: 2690 nM.
On to `O=C(c1cccc(-n2nc(C(=O)N3CCOCC3)c3c2-c2ccccc2S(=O)(=O)C3)c1)N1CCS(=O)(=O)CC1` [Example 146, 1-{3-[(1,1-Dioxidothiomorpholin-4-yl)carbonyl]phenyl}-3-(morpholin-4-ylcarbonyl)-1,4-dihydrothiochromeno[4,3-c]pyrazole 5,5-dioxide], for which the IC50 is 319 nM.
As for `O=C(c1nn(-c2ccc(F)cc2)c2c1CS(=O)(=O)c1ccccc1-2)N1CCOCC1` [Example 28, 1-(4-fluorophenyl)-3-(morpholin-4-ylcarbonyl)-1,4-dihydrothiochromeno[4,3-c]pyrazole 5,5-dioxide], the IC50 came out at 373 nM.
Take `O=C(c1nn(-c2cccc(CN3CCC(F)(F)CC3)c2)c2c1CS(=O)(=O)c1ccccc1-2)N1CCOCC1` [Example 260, 1-{3-[(4,4-Difluoropiperidin-1-yl)methyl]phenyl}-3-(morpholin-4-ylcarbonyl)-1,4-dihydrothiochromeno[4,3-c]pyrazole 5,5-dioxide]: the IC50 came to 560 nM.
On the same count and under the same terms, the same measure for `O=C(Nc1cccc(-n2nc(C(=O)N3CCOCC3)c3c2-c2ccccc2S(=O)(=O)C3)c1)N1CCOCC1` [Example 209, N-{3-[3-(Morpholin-4-ylcarbonyl)-5,5-dioxidothiochromeno[4,3-c]pyrazol-1 (4H)-yl]phenyl)morpholine-4-carboxamide]: 3590 nM; for `COC1CCN(CCN2CCC[C@H](n3nc(C(=O)N4CCOCC4)c4c3-c3ccccc3S(=O)(=O)C4)C2)C1` (stereo in doubt) [Example 439, 1-{1-[2-(3-methoxypyrrolidin-1-yl)ethyl]piperidin-3-yl}-3-(morpholin-4-ylcarbonyl)-1,4-dihydrothiochromeno[4,3-c]pyrazole 5,5-dioxide]: 25 nM; for `O=C(c1nn(-c2ccc(CNC3CCOC3)cc2)c2c1CS(=O)(=O)c1ccccc1-2)N1CCOCC1` (stereo not shown) [Example 456, N-{4-[3-(Morpholin-4-ylcarbonyl)-5,5-dioxidothiochromeno[4,3-c]pyrazol-1(4H)-yl]benzyl}tetrahydrofuran-3-amine]: 156 nM.
Turning to `O=C(c1nn(C2CCCN(CCN3CCCC(F)(F)C3)C2)c2c1CS(=O)(=O)c1ccccc1-2)N1CCOCC1` (stereo not shown) [Example 284, 1-{1-[2-(3,3-Difluoropiperidin-1-yl)ethyl]piperidin-3-yl}-3-(morpholin-4-ylcarbonyl)-1,4-dihydrothiochromeno[4,3-c]pyrazole 5,5-dioxide], the IC50 came out at 83 nM.
As for `Cc1ccccc1-c1ccc(-n2nc(C(=O)N3CCOCC3)c3c2-c2ccccc2S(=O)(=O)C3)cc1` [Example 161, 1-(2′-Methylbiphenyl-4-yl)-3-(morpholin-4-ylcarbonyl)-1,4-dihydrothiochromeno[4,3-c]pyrazole 5,5-dioxide], the IC50 worked out at 6470 nM.
In the case of `COCCOc1cccc(-n2nc(C(=O)N3CCOCC3)c3c2-c2ccccc2S(=O)(=O)C3)c1` [Example 341, 1-[3-(2-Methoxyethoxy)phenyl]-3-(morpholin-4-ylcarbonyl)-1,4-dihydrothiochromeno[4,3-c]pyrazole 5,5-dioxide], the IC50 was found to be 726 nM.
Same read-out and setting: the same measure for `O=C(c1nn(-c2cccc(OCCn3cccn3)c2)c2c1CS(=O)(=O)c1ccccc1-2)N1CCOCC1` [Example 340, 3-(Morpholin-4-ylcarbonyl)-1-{3-[2-(1H-pyrazol-1-yl)ethoxy]phenyl}-1,4-dihydrothiochromeno[4,3-c]pyrazole 5,5-dioxide]: 445 nM.
With `O=C(c1nn([C@@H]2CCCN(CC3CCOCC3)C2)c2c1CS(=O)(=O)c1ncccc1-2)N1CCOCC1` (single isomer, unassigned) [Example 371, 3-(morpholin-4-ylcarbonyl)-1-[1-(tetrahydro-2H-pyran-4-ylmethyl)piperidin-3-yl]-1,4-dihydropyrazolo[3′,4′:4,5]thiopyrano[2,3-b]pyridine 5,5-dioxide], the IC50 amounted to 830 nM.
As for `O=C(c1nn(C2CCCC(C(=O)N3CCCCC3)C2)c2c1CS(=O)(=O)c1ccccc1-2)N1CCOCC1` (stereo not shown) [Example 193, 3-(Morpholin-4-ylcarbonyl)-1-[3-(piperidin-1-ylcarbonyl)cyclohexyl]-1,4-dihydrothiochromeno[4,3-c]pyrazole 5,5-dioxide], the IC50 was 362 nM.

The same experiment, now with this note: inhibition at 20 μM.
Regarding `CS(=O)(=O)c1ccccc1-n1nc(C(=O)N2CCOCC2)c2c1-c1ccccc1S(=O)(=O)C2` [Example 314], the “Best potency measured on the 4 PI3K isoforms, % inh @20 μM” value worked out at 45% inh @20 μM.
